Data on one molecule can be found in ChEMBL document CHEMBL1158927, “Facilitation of protein biosynthesis by ginsenoside-Rb2 administration in diabetic rats” (1990).

Experiment [1] has as its system Rattus norvegicus. The experiment can be described thus: Antidiabetic activity against streptozotocin-induced diabetic Wistar rat assessed as increase in serum protein level at 10 mg/day, ip for 3 days measured after 6 days by biuret method (RVb=4.86+/-0.30 g/dl). The format is functional.
For experiment [2], the system named is Rattus norvegicus. The experiment can be described thus: Antidiabetic activity against streptozotocin-induced diabetic Wistar rat assessed as increase in incorporation of [14C]leucine into hepatic microsomal fraction at 10 mg/day, ip measured per mg protein after 3 days (RVb=555+/-33 cpm). Format: functional, Liver.
Experiment [3] deals with Rattus norvegicus. Nature of the experiment: Antidiabetic activity against streptozotocin-induced diabetic Wistar rat assessed as increase in incorporation of [14C]leucine in to hepatic nuclear fraction at 10 mg/day, ip measured per mg protein after 3 days (RVb=272+/-8 cpm). The format is functional.
In experiment [4] the test system is Rattus norvegicus. Nature of the experiment: Antidiabetic activity against streptozotocin-induced diabetic Wistar rat assessed as increase in incorporation of [14C]leucine into hepatic homogenate at 10 mg/day, ip measured per mg protein after 3 days (RVb=401+/-16 cpm). Format: functional.
In experiment [5] the test system is Rattus norvegicus. The experiment can be described thus: Antidiabetic activity against streptozotocin-induced diabetic Wistar rat assessed as increase in serum protein level at 10 mg/day, ip for 6 days by biuret method. The format is functional.
Experiment [6] concerns Rattus norvegicus. Nature of the experiment: Antidiabetic activity against streptozotocin-induced diabetic Wistar rat assessed as increase in serum albumin level at 10 mg/day, ip for 3 days measured after 3 days by BCG method (RVb=3.24+/-0.11 g/dl). The format is functional.
The test system of experiment [7] is Rattus norvegicus. The experiment can be described thus: Antidiabetic activity against streptozotocin-induced diabetic Wistar rat assessed as increase in incorporation of [14C]leucine into hepatic […] fraction at 10 mg/day, ip measured per mg protein after 6 days (RVb=357+/-14 cpm). Format: functional.
Experiment [8] concerns Rattus norvegicus. The experiment can be described thus: Antidiabetic activity against streptozotocin-induced diabetic Wistar rat assessed as increase in incorporation of [14C]leucine in to hepatic […] fraction at 10 mg/day, ip measured per mg protein after 3 days (RVb=377+/-10 cpm). Format: functional.
The subject of experiment [9] is Rattus norvegicus. The experiment can be described thus: Antidiabetic activity against streptozotocin-induced diabetic Wistar rat assessed as decrease in serum glucose level at 10 mg/day, ip for 3 days measured after 3 days (RVb=396+/-18.7 mg/dl). The format is functional.
The test system of experiment [10] is Rattus norvegicus. Nature of the experiment: Antidiabetic activity against streptozotocin-induced diabetic Wistar rat assessed as […] in incorporation of [14C]leucine into per mg of serum protein at 10 mg/day, ip measured after 6 days (RVb=612+/-40 cpm). The format is functional.
Experiment [11] relates to Rattus norvegicus. The experiment can be described thus: Antidiabetic activity against streptozotocin-induced diabetic Wistar rat assessed as increase in incorporation of [14C]leucine into hepatic homogenate at 10 mg/day, ip measured per mg protein after 6 days (RVb=372+/-3 cpm). The format is functional.
Experiment [12] has as its system Rattus norvegicus. Nature of the experiment: Antidiabetic activity against streptozotocin-induced diabetic Wistar rat assessed as increase in serum albumin level at 10 mg/day, ip for 3 days measured after 6 days by BCG method (RVb=3.07+/-0.08 g/dl). Format: functional.
Experiment [13] concerns Rattus norvegicus. The experiment can be described thus: Antidiabetic activity against streptozotocin-induced diabetic Wistar rat assessed as increase in incorporation of [14C]leucine into hepatic microsomal fraction at 10 mg/day, ip measured per mg protein after 6 days (RVb=499+/-57 cpm). Format: functional, Liver.
For experiment [14], the system named is Rattus norvegicus. Nature of the experiment: Antidiabetic activity against streptozotocin-induced diabetic Wistar rat assessed as increase in incorporation of [14C]leucine in to hepatic nuclear fraction at 10 mg/day, ip measured per mg protein after 6 days (RVb=273+/-8 cpm). Format: functional.
The test system of experiment [15] is Rattus norvegicus. The experiment can be described thus: Antidiabetic activity against streptozotocin-induced diabetic Wistar rat assessed as increase in incorporation of [14C]leucine into hepatic soluble fraction at 10 mg/day, ip measured per mg protein after 3 days (RVb=265+/-8 cpm). Format: functional.
Experiment [16] deals with Rattus norvegicus. Nature of the experiment: Antidiabetic activity against streptozotocin-induced diabetic Wistar rat assessed as decrease in serum glucose level at 10 mg/day, ip for 3 days measured after 6 days (RVb=401+/-10.7 mg/dl). Format: functional.
The subject of experiment [17] is Rattus norvegicus. Nature of the experiment: Antidiabetic activity against streptozotocin-induced diabetic Wistar rat assessed as increase in incorporation of [14C]leucine into hepatic soluble fraction at 10 mg/day, ip measured per mg protein after 6 days (RVb=227+/-8 cpm). The format is functional.
For experiment [18], the system named is Rattus norvegicus. Nature of the experiment: Antidiabetic activity against streptozotocin-induced diabetic Wistar rat assessed as increase in serum protein level at 10 mg/day, ip for 3 days measured after 3 days by biuret method (RVb=5.06+/-0.18 g/dl). The format is functional.
The test system of experiment [19] is Rattus norvegicus. Nature of the experiment: Antidiabetic activity against streptozotocin-induced diabetic Wistar rat assessed as […] in incorporation of [14C]leucine into per mg serum protein at 10 mg/day, ip measured after 3 days (RVb=640+/-50 cpm). The format is functional.

Each structure is given as a SMILES string.

As for `CC(C)=CCC[C@](C)(O[C@@H]1O[C@H](CO[C@@H]2OC[C@H](O)[C@H](O)[C@H]2O)[C@@H](O)[C@H](O)[C@H]1O)[C@H]1CC[C@]2(C)[C@@H]1[C@H](O)C[C@@H]1[C@@]3(C)CC[C@H](O[C@@H]4O[C@H](CO)[C@@H](O)[C@H](O)[C@H]4O[C@@H]4O[C@H](CO)[C@@H](O)[C@H](O)[C@H]4O)C(C)(C)[C@@H]3CC[C@]12C` [GINSENOSIDE RB2], the Activity was found to be 5.68 g/dL in the experiment on Rattus norvegicus [1]; 689 cpm in the experiment on Rattus norvegicus [2]; 294 cpm with Rattus norvegicus [3]; 481 cpm in the experiment with Rattus norvegicus [4]; 17% with Rattus norvegicus [5]; 3.24 g/dL in the experiment with Rattus norvegicus [6]. Also, the Activity amounted to 395 cpm in the experiment on Rattus norvegicus [7]; 426 cpm in the experiment on Rattus norvegicus [8]; 337.2 mg/dL in the experiment on Rattus norvegicus [9]; 699 cpm with Rattus norvegicus [10]; 424 cpm in the experiment on Rattus norvegicus [11]; 3.39 g/dL in the experiment on Rattus norvegicus [12]. The Activity turned out to be 737 cpm with Rattus norvegicus [13]; 314 cpm in the experiment with Rattus norvegicus [14]; 287 cpm in the experiment with Rattus norvegicus [15]; 321 mg/dL in the experiment on Rattus norvegicus [16]; 242 cpm in the experiment with Rattus norvegicus [17]; 5.11 g/dL in the experiment on Rattus norvegicus [18]. In addition, in the experiment on Rattus norvegicus [19], the Activity was found to be 921 cpm.
